Measurements taken from patent publication US9056840B2, “Coelenterazine analogues and coelenteramide analogues” (JNC Corporation, priority 2010, dated 2015).
Entries after “also recorded” stand apart in the source; their conditions may differ.

Assays:
apoaequorin [1] = target: T1, apoaequorin (Aequorea victoria, UniProt P07164); assay: Fluorescence spectra of semi-synthetic gFP (coelenteramide analogue + apoaequorin, EDTA); assay type: physicochemical; details: 10 mM EDTA buffer, excitation 337 nm
T1 construct: purchased Chisso Corporation
Outline: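 Apoaequorin (0.2 mg) incubated with coelenteramide analogue 16 h at 4 °C in 50 mM Tris-HCl pH 7.6, 10 mM EDTA, 1 mM DTT to form semi-synthetic gFP. Emission spectra at 25 °C, excitation 337 nm. Analogue-alone controls at 8 μg/ml final, in EDTA or 10 mM CaCl2 buffer.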

apoaequorin [2] = target: T1, apoaequorin; assay: Fluorescence spectra of semi-synthetic BFP (coelenteramide analogue + apoaequorin, CaCl2); assay type: physicochemical; details: 10 mM CaCl2 buffer, excitation 337 nm
Outline: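 Apoaequorin (0.2 mg) was mixed with coelenteramide analogue in 50 mM Tris-HCl pH 7.6, 10 mM CaCl2, 1 mM DTT and held 16 h at 4° C. Analogue-alone controls were run at 8 μg/ml final in the same buffer with 10 mM EDTA or CaCl2. Spectra were recorded at 25° C., excitation 337 nm.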

[3] = Fluorescence spectra of coelenteramide analogue alone (absence of apoaequorin); assay type: physicochemical; details: analogue alone 8 μg/ml
Outline: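 Coelenteramide analogue at 8 μg/ml without apoaequorin in 50 mM Tris-HCl pH 7.6 with 1 mM DTT plus either 10 mM EDTA or 10 mM CaCl2. Fluorescence spectra recorded at 25° C, excitation 337 nm, 3 nm bandwidth.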

apoaequorin [4] = target: T1, apoaequorin; assay: Luciferase activity of semi-synthetic BFPs using coelenterazine as substrate; assay type: biochemical; details: Imax, 10 mM CaCl2, 10 seconds, BFP from CTMD = 100
Procedure: To confirm that semi-synthetic BFPs prepared from coelenteramide analogues and apoaequorin, which are novel fluorescent proteins having luciferase activity, the luminescence reaction was performed in the presence of calcium ions, using coelenterazine as a light emitting substrate. After 5 μl (corresponding to 1 μg protein) of a solution of semi-synthetic BFP prepared in EXAMPLE 12 was added to 100 μl of 50 mM Tris-HC 1 (pH 7.6) containing 10 mM CaCl2, 1 μl of a solution of coelenterazine (1 μg/μl) in ethanol was mixed with the solution to start the luminescence reaction. The luminescence activity was measured for 10 seconds on a luminometer luminescencer-PSN AB2200 (manufactured by Atto Co., Ltd.). The luminescence activity was determined by repeating the measurement of luminescence activity described above twice and expressed in terms of the maximum luminescence intensity (Imax) of luminescence activity.

apoaequorin [5] = target: T1, apoaequorin; assay: Calcium standard curve with semi-synthetic aequorins; assay type: biochemical; details: FIG. 3; Imax versus calcium concentration
Procedure: In 9 ml of 50 mM Tris-HCl (pH 7.6), 1 ml of 1 g/L calcium carbonate standard solution (manufactured by Wako Pure Chemicals) was diluted to prepare 10^−3 M calcium carbonate solution. One milliliter of the resulting 10^−3 M calcium carbonate solution was taken and added to 9 ml of 50 mM Tris-HCl (pH 7.6) to prepare 10^−4 M calcium carbonate solution. Next, 3 ml of the resulting 10^−4 M calcium carbonate solution was taken and added to 6 ml of 50 mM Tris-HCl (pH 7.6) to prepare […] calcium carbonate solution. One milliliter from the 10^−4 M calcium carbonate solution obtained was added to 9 ml of 50 mM Tris-HCl (pH 7.6) to prepare 10^−5 M calcium carbonate solution. Then, 3 ml of the resulting 10^−5 M calcium carbonate solution was taken and added to 6 ml of 50 mM Tris-HCl (pH 7.6) to prepare 3×10^−5 M calcium carbonate solution. A dilution series was prepared by successively repeating the procedures described above to give the 10^−3 M to 10^−8 M calcium standard solutions.
In 5 ml of 50 mM Tris-HCl (pH 7.6) containing 10 mM DTT and 30 mM EDTA, 5 mg of recombinant apoaequorin (manufactured by Chisso Corporation) was dissolved and 100 μg of coelenterazine analogue dissolved in ethanol in an amount of 1.2-fold equivalent was added to the solution. The mixture was allowed to stand at 4° C. overnight to convert into semi-synthetic aequorin. The resulting semi-synthetic aequorin was concentrated using Amicon Ultra-4 (manufactured by Millipore, Inc., molecular weight cut-off: 10,000) to remove an excessive of coelenterazine analogue. The mixture was then washed 3 times with 3 ml of 30 mM Tris-HCl (pH 7.6) containing 0.05 mM EDTA to give the solution of semi-synthetic aequorin containing 0.05 mM EDTA. This semi-synthetic aequorin solution (2.5 mg/ml) was diluted with 20 mM Tris-HCl (pH 7.6) containing 0.1% BSA (manufactured by Sigma), 0.01 mM EDTA and 150 mM NaCl.
The calcium standard solution prepared as above was dispensed into a 96-well microplate (Nunc #236108) at 50 μl/well and 10 μl of the diluted semi-synthetic aequorin solution was injected into 50 μl of various concentration of calcium standard solution. The luminescence intensity was measured for 60 seconds on a luminescence plate reader Centro LB960 (manufactured by Berthold) and expressed in terms of the maximum intensity (Imax) of luminescence. The luminescence intensity was measured on each semi-synthetic aequorin in the same procedures. Semi-synthetic aequorins for practically use were chosen by the maximum intensity (Imax) of luminescence and the calcium standard curve of semi-synthetic aequorin was prepared.

Gaussia luciferase = assay: Substrate specificity and luminescence activity of Gaussia luciferase; assay type: biochemical; details: measured for 10 seconds, coelenterazine = 100
Procedure: Gaussia luciferase was purified by the method described in Japanese Patent Application KOKAI No. 2008-099669 and provided for use. After 1 μl of Gaussia luciferase (0.024 mg/ml) was dissolved in 100 μl of phosphate buffered saline (manufactured by Sigma Inc.) containing 0.01% Tween 20 (manufactured by Sigma Inc.) and 10 mM EDTA, 1 μl of a solution of coelenterazine or its analogue (1 μg/μl) in ethanol was mixed with the solution to start the luminescence reaction. The luminescence activity was measured for 10 seconds on a luminometer luminescencer-PSN AB2200 (manufactured by Atto Co., Ltd.). The luminescence activity was determined by repeating the measurement described above 3 times and expressed in terms of the maximum luminescence intensity (Imax) of luminescence activity.

Renilla luciferase = target: T2, Renilla luciferase (Renilla reniformis, UniProt P27652); assay: Substrate specificity and luminescence activity of Renilla luciferase; assay type: biochemical; details: measured for 10 seconds, coelenterazine = 100
T2 construct: made in house
T2 sequence (P27652 1-311): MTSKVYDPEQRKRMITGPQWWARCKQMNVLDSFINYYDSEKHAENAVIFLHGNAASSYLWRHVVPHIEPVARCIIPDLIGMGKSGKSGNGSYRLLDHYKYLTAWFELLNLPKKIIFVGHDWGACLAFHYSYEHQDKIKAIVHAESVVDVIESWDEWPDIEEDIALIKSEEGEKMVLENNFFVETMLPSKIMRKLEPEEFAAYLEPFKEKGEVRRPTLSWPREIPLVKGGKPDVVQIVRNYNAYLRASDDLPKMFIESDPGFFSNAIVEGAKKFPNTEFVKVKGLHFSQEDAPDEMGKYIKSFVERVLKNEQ
Procedure: Renilla luciferase was purified by the method described in Inouye, S. & Shimomura, O. Biochem. Biophys. Res. Commun. (1997) 233: 349-353, and used for assay.
(§1) After 1 μl of Renilla luciferase (0.45 mg/ml) was dissolved in 100 μl of 30 mM Tris-HCl (pH 7.6) containing 10 mM EDTA, 1 μl of a solution of coelenterazine or its analogue (1 μg/μl) in ethanol was added to the solution to start the luminescence reaction. The luminescence activity was measured for 10 seconds on a luminometer luminescencer-PSN AB2200 (manufactured by Atto Co., Ltd.). The luminescence activity was determined by repeating the measurement of luminescence activity described above 3 times and expressed in terms of the maximum luminescence intensity (Imax) of luminescence activity.

apoaequorin [6] = target: T1, apoaequorin; assay: Luminescence spectra of semi-synthetic aequorins; assay type: biochemical; details: semi-synthetic aequorin, calcium added, 22 to 25° C.
Procedure: In a quartz cell with light path length of 10 mm, 1 ml of 50 mM Tris-HCl (pH 7.6) containing 1 mM EDTA and 100 μl (100 μg protein) of a solution of the regenerated semi-synthetic aequorin were charged. Next, 100 μl of 50 mM Tris-HCl (pH 7.6) containing 0.1 ml of 10 mM calcium chloride solution was added thereto to start the luminescence reaction. The spectra were measured on a spectrofluorimeter (FP-6500, manufactured by Jasco Co., Ltd.) with the excitation light source turned off. The measurement conditions were bandwidth: 20 nm, response: 0.5 second, scan speed: 2000 nm/min and 22 to 25° C. The luminescence spectra measured were corrected.

apoaequorin [7] = target: T1, apoaequorin; assay: Fluorescence spectra of fluorescent proteins formed from semi-synthetic aequorins by Ca2+; assay type: physicochemical; details: for Maximum fluorescence wavelength λmax (nm) / Relative fluorescence intensity (rlu): fluorescent protein generated by calcium from semi-synthetic aequorin, excitation 330 nm, 25° C.; for fluorescence spectra of fluorescent proteins versus emission spectra of semi-synthetic aequorins, in words: same coelenterazine analogue
Procedure: The fluorescence spectra of novel fluorescent proteins formed by the Ca^2+-triggerd reaction from semi-synthetic aequorins in EXAMPLE 3 were measured at 25° C. in a quartz cell (10 mm light path length) using a Jasco FP-6500 spectrofluorometer (excitation wavelength: 330 nm, emission/excitation bandwidth: 3 nm; response: 0.5 sec, scan speed, 1000 nm/min). The fluorescence spectra measured were corrected.

[8] = target: T3, 19 kDa protein from Oplophorus luciferase (Oplophorus gracilirostris, UniProt Q9GV45); assay: Substrate specificity and luminescence activity of the 19 kDa protein from Oplophorus luciferase; assay type: biochemical; details: measured for 60 seconds, coelenterazine = 100
T3 construct: made in house
Procedure: The 19 kDa protein from Oplophorus luciferase was purified by the method described in Inouye, S. and Sasaki, S., Protein Express. Purif. (2007) 56: 261-268 and provided for use.
as §1, with “of the 19 kDa protein (2.3 mg/ml) from Oplophorus” for “of Renilla”, “luciferase containing 1 mM DTT” for “luciferase (0.45 mg/ml)”, “luminescence reaction, and the” for “luminescence reaction. The”, “for 60” for “for 10”, “measurement” for “measurement of luminescence activity”

apoaequorin [9] = target: T1, apoaequorin; assay: Luminescence patterns of semi-synthetic aequorins, half decay time; assay type: biochemical; details: for Half decay time: semi-synthetic aequorin, time in which luminescence becomes half of maximum, patterns measured for 60 seconds
Procedure: A solution of the regenerated semi-synthetic aequorin was diluted to 10-fold with 20 mM Tris-HCl (pH 7.6) containing 0.1% BSA (manufactured by Sigma, Inc.), 0.01 mM EDTA and 150 mM NaCl. The dilution was dispensed into a 96-well microplate (Nunc #236108) at 5 μl/well. The luminescence reaction was triggered by injecting 50 mM Tris-HCl (pH 7.6) containing 50 mM calcium chloride solution at 100 μl/well. The luminescence patterns for 60 seconds were measured to determine half decay time of the luminescence (a time period in which the luminescence becomes half of the maximum luminescence intensity).

[10] = 10 mM CaCl2 buffer pH 7.6, excitation 337 nm
[11] = 10 mM EDTA buffer pH 7.6, excitation 337 nm

T1 sequence (P07164 other isoform, or with tags, fused parts or gaps with the stated changes): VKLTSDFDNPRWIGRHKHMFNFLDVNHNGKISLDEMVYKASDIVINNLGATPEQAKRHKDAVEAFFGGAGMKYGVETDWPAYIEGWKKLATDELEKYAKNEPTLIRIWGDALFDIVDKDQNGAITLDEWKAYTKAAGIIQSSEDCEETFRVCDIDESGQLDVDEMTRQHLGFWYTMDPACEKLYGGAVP
T3 sequence (Q9GV45 28-196): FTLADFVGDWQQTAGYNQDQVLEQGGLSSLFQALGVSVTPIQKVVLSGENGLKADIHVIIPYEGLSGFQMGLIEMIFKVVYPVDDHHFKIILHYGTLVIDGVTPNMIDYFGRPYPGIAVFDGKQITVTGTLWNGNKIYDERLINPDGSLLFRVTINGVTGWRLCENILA

SMILES	Semi-synthetic gFP (EDTA-containing buffer) Fluorescence intensity (rlu) (apoaequorin [1])	Semi-synthetic gFP (EDTA-containing buffer) Maximum fluorescence wavelength λmax (nm) (apoaequorin [1])	Fluorescence intensity (apoaequorin [2])	Semi-synthetic BFP (Buffer containing CaCl2) Maximum fluorescence wavelength λmax (nm) (apoaequorin [2])	Coelenteramide (Buffer containing CaCl2) Fluorescence intensity (rlu) [3, 10]	Coelenteramide (Buffer containing CaCl2) Maximum fluorescence wavelength λmax (nm) [3, 10]	Coelenteramide (EDTA-containing buffer) Fluorescence intensity (rlu) [3, 11]	Coelenteramide (EDTA-containing buffer) Maximum fluorescence wavelength λmax (nm) [3, 11]	Luciferase activity of semi-synthetic BFP (%) (apoaequorin [4])	calcium standard curve with semi-synthetic aequorin, in words (apoaequorin [5])	Luminescence activity Imax (%) (Gaussia luciferase)	Luminescence activity Imax (%) (Renilla luciferase)	Maximum luminescence wavelength λmax (nm) (apoaequorin [6])	Maximum fluorescence wavelength λmax (nm) (apoaequorin [7])	Relative fluorescence intensity (rlu) (apoaequorin [7])	fluorescence spectra of fluorescent proteins versus emission spectra of semi-synthetic aequorins, in words (apoaequorin [7])	Luminescence activity Imax (%) [8]	half decay time of luminescence compared to coelenterazine (native aequorin), in words (apoaequorin [9])	Half decay time (apoaequorin [9])
O=C(Cc1ccc(O)cc1)Nc1ncc(-c2ccc(O)cc2)nc1Cc1ccccc1 [Coelenteramide]	165.2 rlu	482.5 nm	151.2 rlu	468.5 nm	5.9 rlu	457.0 nm	4.6 rlu	458.0 nm	100.0%	–	–	–	–	–	–	–	–	–	–
O=c1c(Cc2ccc(O)cc2)nc2c(-c3cc4ccccc4s3)[nH]c(-c3ccc(O)cc3)cn1-2 [Compound 3h, 8-(Benzo[b]thiophen-2-yl)-2-(4-hydroxybenzyl)-6-(4-hydroxyphenyl)imidazo[1,2-a]pyrazin-3(7H)-one]	–	–	–	–	–	–	–	–	–	calcium standard curve can be prepared	0.00%	0.00%	532.5 nm	537.0 nm	58.7 rlu	different luminescence spectra and fluorescence spectra	0.07%	longer half decay time	1.71 s
O=c1c(Cc2ccc(O)cc2)nc2c(-c3ccc(O)cc3)[nH]c(-c3ccc(O)cc3)cn1-2 [Compound 3j, 2-(4-Hydroxybenzyl)-6,8-bis(4-hydroxyphenyl)imidazo[1,2-a]pyrazin-3(7H)-one]	–	–	–	–	–	–	–	–	–	calcium standard curve can be prepared	0.01%	0.03%	457.5 nm	580.0 nm	13.3 rlu	markedly different; also recorded: different luminescence spectra and fluorescence spectra	0.2%	markedly prolonged; also recorded: longer half decay time	16.8 s
